Source: US20140315834A1 (Medicon Pharmaceuticals, Inc., priority 2012, published 2014)
Like-named read-outs stand apart in the source and are kept apart here.

What was measured:
A431 skin cancer cells = assay: Cellular uptake, intracellular level by HPLC; settings: 1 hour incubation
Method: A431 skin cancer cells were seeded into 6-well culture plates (5×10^5 per well). After overnight incubation, the cells were incubated with 100 pM of each compound alone for 1 hour. After the media were removed and the monolayers were washed three times with PBS (1% BSA), the cells were collected in PBS.

[1] = rat, in vivo
[2] = Pharmacokinetics of PTI, plasma levels after i.p. dose
in vivo = settings: wt (wild type) and nude, mouse, po
[3] = test system: AsPC-1, CFPAC-1, Capan-2, Panc-1 and MIA PaCa-2; assay: Growth of human pancreatic cancer cell lines, 24 hours; format: cell-based; settings: escalating concentrations, all cell lines
Method: Cell growth was determined in the human pancreatic cancer cell lines AsPC-1, CFPAC-1, Capan-2, Panc-1 and MIA PaCa-2 after treatment with escalating concentrations of P-FTS 67 for 24 hours.

MIA PaCa-2 cells = assay: MIA PaCa-2 pancreatic cancer xenografts; format: in vivo, mice; settings: for reduction of tumor volume growth: day 25
Method: The in vivo chemotherapeutic potential of P-FTS 67 was assessed using a pancreatic cancer xenograft model. MIA PaCa-2 cells were injected subcutaneously into the flank areas of nude mice. When palpable tumors were observed, the mice received P-FTS 67, 50 or 100 mg/kg/d by oral gavage in corn oil or just corn oil (control) for 25 days. On day 25 of treatment, P-FTS 67, 50 mg/kg/d, and P-FTS 67, 100 mg/kg/d reduced the tumor volume growth by 62% and 65%, respectively (p <0.05; FIG. 27).

[4] = Sub-chronic toxicity of P-FTS, 3 weeks oral gavage; format: in vivo, mice
Method: The toxicity of P-FTS in mice was further examined. Groups of 6 week-old female BALB/c mice (5 mice/group) were given by oral gavage once a day for 3 weeks P-FTS: 0, 75, 150, 250 and 350 mg/kg. […] The (sub-chronic) maximum tolerated dose of P-FTS 67 (3-week period of observation) was determined to be at least 350 mg/kg/d.

[5] = test system: Ras (Ras-GTP) in Panc-1 cells; assay: Ras-GTP pull down assay in cells; format: cell-based
Description: In the following experiments it was examined whether the pancreatic cancer growth inhibitory effect of P-FTS 67 is associated with down regulation of Ras signaling. For this purpose, the Ras-GTP pull down assay was used.

[6] = test system: active Ras in MIA PaCa-2 xenografts; assay: Ras-GTP pull down assay in xenograft lysates; format: in vivo, mice
Method: The inhibition of Ras by P-FTS 67 was further confirmed in vivo. The Ras-GTP pull down assay was used to test the capacity of P-FTS 67 to inhibit active Ras in fresh protein lysates from MIA PaCa-2 xenografts. Compared to controls, P-FTS 67, 50 and 100 mg/kg reduced RAS activation in xenografts by 62% and 70%, respectively (p<0.01, for both; FIG. 30A).

p-c-RAF = assay: Immunostaining of xenograft tissue sections, p-c-RAF; format: in vivo, mice; settings: MIA PaCa-2 xenograft tissue sections
p-ERK1/2 = assay: Immunostaining of xenograft tissue sections, p-ERK1/2; format: in vivo, mice; settings: MIA PaCa-2 xenograft tissue sections
[7] = parameters: AUC in lung: unit not given beside the values; settings: mouse, in vivo, inhaled or intranasal
[8] = mouse, in vivo, po, 100 mg/kg
[9] = Cardiotoxicity, histology of heart tissue sections; format: in vivo, mice; settings: treated for about 1.5 months
Description: Heart tissue sections from mice treated with PTI for about 1.5 months were examined histologically.

SW480 colon cancer cells = assay: SW480 xenografts, prevention of colon cancer; format: in vivo, mice; settings: 10 mg/kg/day oral gavage, 43 days, end of study
Method: Six-week-old female athymic nude mice, i.e. lacking a thymus gland and having no T-cells (Taconic Farms, Germantown, N.Y.; in =6/group) were treated by oral gavage of PTI 10 mg/kg/day, or vehicle (corn oil) for a total of 43 days. Five days later, 1.2×10^6 SW480 colon cancer cells suspended in 100 μl of phosphate buffered saline (PBS) were inoculated subcutaneously to each flank of the mice. Tumor size was monitored by measuring the length (L) and width (W) with a digital caliper and the volume was calculated according to the formula, L×W×(L+W/2)×0.56.

[10] = Gastrointestinal toxicity, gastric ulcers by H&E staining
[11] = test system: Salmonella Typhimurium (TA98 and TA100); assay: Genotoxicity, reverse mutation with and without rat liver S9; settings: TA98 and TA100, presence and absence of rat liver S9
[12] = test system: MDA-MB-231 human BC cells; assay: Orthotopic MDA-MB-231 breast cancer xenografts, prevention; format: in vivo, mice
[13] = Maximum tolerated dose of PA-III; parameters: species or system mice; settings: mouse, in vivo
Method: The ability of phospho-aspirin III (PA-III) 506 to prevent breast cancer (BC) was evaluated using MDA-MB-231 human BC cells xenografted into one of the mammary glands of nude mice (orthotopic xenografts). PA was administered orally, 120 mg/kg/d 1 week prior to inoculating the cells (the standard prevention protocol); acetylsalicylic acid (ASA) was given at an equimolar dose of 40 mg/kg/d. This was the highest dose of ASA that these mice could tolerate on a long-term basis. The dose of PA-III 506 represents <10% of its maximum tolerated dose (MTD>1,600 mg/kg), but was chosen so that a comparison between PA-III 506 and ASA was possible.

[14] = Levels of PA-III and metabolites in blood and xenografts by HPLC; format: in vivo; settings: mice treated with PA-III 506
CYP 2C19 = CYP 2C19 (Homo sapiens, UniProt P33261); settings: 37° C., NADPH-regenerating solution
Method: (§1) PSA 95 was pre-incubated at 37° C. for 5 minutes with an NADPH-regenerating solution in 0.1 M potassium phosphate buffer (pH 7.4). The reaction was initiated by the addition of individual recombinant human CYP isoforms (25 μmol/ml) in a total volume of 1 ml and samples were maintained at 37° C. for various time periods. At each designated time-point, aliquots were extracted with acetonitrile, and subjected to HPLC analysis.

CYP 2D6 = CYP 2D6 (Homo sapiens, UniProt P10635); settings: 37° C., NADPH-regenerating solution
Method: as §1

CYP 2C9 = CYP 2C9 (Homo sapiens, UniProt P11712); settings: 37° C., NADPH-regenerating solution
Method: as §1

CYP 3A4 = CYP 3A4 (Homo sapiens, UniProt P08684); settings: 37° C., NADPH-regenerating solution
Method: as §1

CYP 1A2 = CYP 1A2 (Homo sapiens, UniProt P05177); settings: 37° C., NADPH-regenerating solution
Method: as §1

[15] = test system: U87 glioblastoma cell line; assay: 24-hour growth inhibition of glioblastoma cells; format: cell-based; settings: read-out: 24-h 1c50
[16] = test system: A549 human lung cancer xenografts; assay: A549 sc xenografts, i.v. PS in nanocarrier vs sulindac; format: in vivo, mice; settings: equimolar dose of sulindac 40 mg/kg
[17] = Pharmacokinetics of phosphosulindac amide, single oral dose; settings: after single oral dose 100 mg/kg PSA 95
[18] = Pharmacokinetics of PI-PEG and PI, i.p.; format: in vivo, mice; settings: equimolar doses
Method: PI-PEG 7 and PI 1 were injected i.p. in mice at equimolar doses and at predetermined time points the animals were sacrificed and blood was collected through heart puncture. PI-PEG and PI were extracted by adding a 2-fold volume of acetonitrile. After centrifugation for 10 minutes at 5000×g, the supernatants were subjected to HPLC analysis.

[19] = 120 mg/kg/d orally, 20 treated mice

CYP 2C19, sequence (P33261 whole entry): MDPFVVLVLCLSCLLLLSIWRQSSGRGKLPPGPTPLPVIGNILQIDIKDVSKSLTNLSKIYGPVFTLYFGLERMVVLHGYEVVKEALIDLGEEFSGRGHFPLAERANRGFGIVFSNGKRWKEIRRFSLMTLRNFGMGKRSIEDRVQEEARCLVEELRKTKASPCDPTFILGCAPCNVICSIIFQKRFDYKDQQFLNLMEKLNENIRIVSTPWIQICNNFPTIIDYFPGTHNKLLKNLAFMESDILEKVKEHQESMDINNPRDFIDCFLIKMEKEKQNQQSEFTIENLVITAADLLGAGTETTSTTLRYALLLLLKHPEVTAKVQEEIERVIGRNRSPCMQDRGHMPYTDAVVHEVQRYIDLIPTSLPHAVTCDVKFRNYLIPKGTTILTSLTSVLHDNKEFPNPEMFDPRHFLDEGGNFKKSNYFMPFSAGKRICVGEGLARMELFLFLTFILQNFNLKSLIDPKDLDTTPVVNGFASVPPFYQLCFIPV
CYP 1A2, sequence (P05177 whole entry): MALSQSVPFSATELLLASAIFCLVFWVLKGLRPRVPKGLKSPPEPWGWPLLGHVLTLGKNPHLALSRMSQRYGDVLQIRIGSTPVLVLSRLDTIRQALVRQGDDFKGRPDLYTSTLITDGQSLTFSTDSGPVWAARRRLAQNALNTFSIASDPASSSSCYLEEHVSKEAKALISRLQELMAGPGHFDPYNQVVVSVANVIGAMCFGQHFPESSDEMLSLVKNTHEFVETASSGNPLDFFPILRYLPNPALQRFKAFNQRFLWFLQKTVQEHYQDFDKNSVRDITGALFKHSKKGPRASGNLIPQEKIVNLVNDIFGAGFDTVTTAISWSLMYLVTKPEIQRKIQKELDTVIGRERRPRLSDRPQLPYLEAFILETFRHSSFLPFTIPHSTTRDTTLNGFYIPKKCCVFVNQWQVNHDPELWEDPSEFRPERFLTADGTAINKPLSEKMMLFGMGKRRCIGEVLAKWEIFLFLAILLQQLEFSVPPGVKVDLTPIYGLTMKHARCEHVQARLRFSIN
CYP 3A4, sequence (P08684 whole entry): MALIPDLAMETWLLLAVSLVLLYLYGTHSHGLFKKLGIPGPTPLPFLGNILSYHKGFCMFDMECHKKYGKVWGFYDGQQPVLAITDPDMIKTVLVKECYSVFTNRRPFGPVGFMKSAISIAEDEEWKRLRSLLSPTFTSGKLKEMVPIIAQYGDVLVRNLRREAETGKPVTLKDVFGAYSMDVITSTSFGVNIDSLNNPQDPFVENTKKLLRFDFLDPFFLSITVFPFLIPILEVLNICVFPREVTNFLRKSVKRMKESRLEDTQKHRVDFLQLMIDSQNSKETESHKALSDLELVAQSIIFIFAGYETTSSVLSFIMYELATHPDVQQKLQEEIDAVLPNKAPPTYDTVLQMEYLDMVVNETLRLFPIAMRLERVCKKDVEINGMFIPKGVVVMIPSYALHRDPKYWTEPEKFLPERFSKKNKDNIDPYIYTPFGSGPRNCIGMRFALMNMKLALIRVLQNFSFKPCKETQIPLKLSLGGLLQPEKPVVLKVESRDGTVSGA
CYP 2C9, sequence (P11712 whole entry): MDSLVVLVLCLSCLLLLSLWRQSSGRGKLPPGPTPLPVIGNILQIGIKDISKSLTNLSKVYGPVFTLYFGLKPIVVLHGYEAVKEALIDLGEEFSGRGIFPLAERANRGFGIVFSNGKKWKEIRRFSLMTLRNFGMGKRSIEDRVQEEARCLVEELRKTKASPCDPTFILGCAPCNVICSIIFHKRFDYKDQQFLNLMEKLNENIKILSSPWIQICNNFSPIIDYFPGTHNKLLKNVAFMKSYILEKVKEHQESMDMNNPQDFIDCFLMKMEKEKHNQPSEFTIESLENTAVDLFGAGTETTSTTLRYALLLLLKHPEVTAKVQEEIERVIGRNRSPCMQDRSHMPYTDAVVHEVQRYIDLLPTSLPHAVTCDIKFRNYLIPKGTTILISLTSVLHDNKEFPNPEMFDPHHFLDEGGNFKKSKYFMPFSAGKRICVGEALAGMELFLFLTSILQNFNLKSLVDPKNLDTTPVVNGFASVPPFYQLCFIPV
CYP 2D6, sequence (P10635 whole entry): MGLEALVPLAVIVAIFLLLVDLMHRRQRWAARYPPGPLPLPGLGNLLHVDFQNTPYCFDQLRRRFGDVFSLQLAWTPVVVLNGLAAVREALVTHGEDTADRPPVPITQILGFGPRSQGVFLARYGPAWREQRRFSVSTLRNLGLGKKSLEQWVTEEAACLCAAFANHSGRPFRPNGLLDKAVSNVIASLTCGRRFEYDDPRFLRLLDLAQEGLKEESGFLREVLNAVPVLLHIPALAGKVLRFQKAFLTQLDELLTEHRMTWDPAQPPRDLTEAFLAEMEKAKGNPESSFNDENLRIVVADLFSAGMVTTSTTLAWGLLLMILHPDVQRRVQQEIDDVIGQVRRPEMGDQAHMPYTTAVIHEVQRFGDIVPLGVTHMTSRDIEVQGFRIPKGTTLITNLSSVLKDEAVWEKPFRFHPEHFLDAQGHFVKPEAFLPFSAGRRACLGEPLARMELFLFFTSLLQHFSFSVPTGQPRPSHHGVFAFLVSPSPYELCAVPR

CC(C)Cc1ccc(C(C)C(=O)OCCCCOP(=O)(O)O)cc1 (stereo not drawn) [phospho-ibuprofen phosphate 505]
accumulation in A431 cells (A431 skin cancer cells; limit of detection 2.5 pmol): no significant accumulation

COc1ccc2c(c1)c(CC(=O)O)c(C)n2C(=O)c1ccc(Cl)cc1 [indomethacin, reference compound]
gastric damage, H&E stained gastric tissue sections [1]: caused gastric damage | Tmax ([2]; mouse, plasma, ip, 58 mg/kg): 1 h

CCOP(=O)(OCC)OCC(CNC(=O)CC1=C(C)/C(=C/c2ccc([S+](C)[O-])cc2)c2ccc(F)cc21)OP(=O)(OCC)OCC (stereo not drawn) [Compound 99, (Z)-tetraethyl 3-(2-(5-fluoro-2-methyl-1-(4-(methylsulfinyl)benzylidene)-1H-inden-3-yl)acetamido)propane-1,2-diyl diphosphate]
MTD at 1 week (in vivo): > 500 mg/kg/day

CCOP(=O)(OCC)OCCCCOC(=O)c1ccccc1SC/C=C(\C)CC/C=C(\C)CCC=C(C)C [Compound 67]
pancreatic cancer cell growth, % control [3]: decreases pancreatic cancer cell growth in a concentration-dependent manner | reduction of tumor volume growth (MIA PaCa-2 cells; 50 mg/kg/d oral gavage): 62% | reduction of tumor volume growth (MIA PaCa-2 cells; 100 mg/kg/d oral gavage): 65% | tolerability in the efficacy study (MIA PaCa-2 cells; 50 or 100 mg/kg/d oral gavage, 25 days): well tolerated | weight loss or other signs of toxicity ([4]; 75, 150, 250 and 350 mg/kg oral gavage once a day for 3 weeks): no weight loss or other signs of toxicity | (sub-chronic) maximum tolerated dose ([4]; oral gavage once a day, 3-week period of observation): at least 350 mg/kg/d | inhibition of active Ras (Ras-GTP) [5]: significantly inhibited | reduction of RAS activation in xenografts ([6]; 50 mg/kg): 62% | reduction of RAS activation in xenografts ([6]; 100 mg/kg): 70% | reduction of expression of p-c-RAF (p-c-RAF): 73% | reduction of expression of p-ERK1/2 (p-ERK1/2): 71%

CC1=C(CC(=O)O)c2cc(F)ccc2/C1=C\c1ccc(S(C)(=O)=O)cc1 [Sulindac sulfone, sulindac sulfone]
AUC in lung [7]: 57.5 | Tmax in lung [7]: 8 h | Tmax in plasma [7]: 8 h | metabolite generated by PSA 95 [8]: no detectable

CCOP(=O)(OCC)OCCc1ccc(OC(=O)Cc2c(C)n(C(=O)c3ccc(Cl)cc3)c3ccc(OC)cc23)cc1 [Compound 93]
heart histology vs healthy control mice [9]: no differences | reduction of tumor growth (SW480 colon cancer cells): 85% | AUCtotal of PTI relative to indomethacin ([2]; FIG. 19, equimolar i.p. doses): about 3.5 times | time at which PTI became undetectable post administration ([2]; single i.p. dose 100 mg/kg PTI): 4 h | time of maximum concentration of PTI ([2]; single i.p. dose 100 mg/kg PTI): 2 h | gastric damage, H&E stained gastric tissue sections ([10]; FIG. 18A): not | reduction of ulcers compared to indomethacin ([10]; day 5, PTI 10 mg/kg/day): 60% | rats that developed ulcers ([10]; day 5, gavage 4 days, indomethacin 4.75 mg/kg/day, PTI 10 mg/kg/day): 40% | genotoxicity [11]: no genotoxicity

CCOP(=O)(OCC)OCCCCOC(=O)c1ccccc1OC(C)=O [PA-III 506, phospho-aspirin]
reduction of average tumor volume compared to controls ([12]; 120 mg/kg/d orally): 62% | treated mice that had no tumors [12, 19]: 20% | treated mice that had tumors <100 mm^3 [12, 19]: 30% | maximum tolerated dose (MTD) [13]: > 1,600 mg/kg | intact compound in plasma or xenografts [14]: No intact PA-III 506 in either plasma or xenografts was detected

CC(=O)Oc1ccccc1C(=O)O [ASA, acetylsalicylic acid]
effect on BC xenograft growth ([12]; 40 mg/kg/d): no effect | oxidation (conversion to 5-OH-PSA) by CYP 2C19 (CYP 2C19): cannot be oxidized | oxidation (conversion to 5-OH-PSA) by CYP 2D6 (CYP 2D6): cannot be oxidized | oxidation by CYP 2C9 (CYP 2C9): cannot be oxidized | oxidation by CYP 3A4 (CYP 3A4): cannot be oxidized | oxidation by CYP 1A2 (CYP 1A2): cannot be oxidized

CC1=C(CC(=O)O)c2cc(F)ccc2/C1=C\c1ccc([S+](C)[O-])cc1 (stereo not drawn) [Sulindac, sulindac, reference compound]
IC50 ([15]; U87, 24-hour growth inhibition): ≥ 1000 µM | inhibition of growth of xenografts [16]: 32% | metabolite generated by PSA 95 [17]: no detectable

CC(C)Cc1ccc(C(C)C(=O)O)cc1 (stereo not drawn) [ibuprofen, reference compound]
IC50 ([15]; U87, 24-hour growth inhibition): ≥ 1000 µM | accumulation in A431 cells (A431 skin cancer cells; limit of detection 2.5 pmol): no significant accumulation

CCOP(=O)(OCC)OCCCCOC(=O)C(C)c1ccc(CC(C)C)cc1 (stereo not drawn) [Compound 2, phospho-ibuprofen]
IC50 ([15]; 24 h): 98 µM | stability and circulation in blood [18]: rapidly hydrolyzed | level inside the cells (A431 skin cancer cells; 100 pM): 0.75 nM | increase over the other two compounds (A431 skin cancer cells; limit of detection 2.5 pmol): ≥ 300 fold
